Measured values from ChEMBL document CHEMBL1201862, “PubChem BioAssay data set” (2004).
Activity calls are given as the source filed them.

Tests used:
Melanocortin receptor 4 = Melanocortin receptor 4 (Homo sapiens, UniProt P32245); assay: inhibitors of MC4R cAMP signaling – cell-based, TR-FRET, biased antagonists, dose response (AID 602298); format: functional;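 further: antagonist potency against agonist-stimulated cAMP production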
[1] = cAMP pathway inhibition in counterscreen cell line – TR-FRET cAMP detection, counter-screen for MC4R biased antagonist project, dose response (AID 602305); format: functional, cell-based;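 further: U2OS cells stimulated with forskolin near its EC80 as the cAMP inducer; potency is for inhibition of forskolin-stimulated cAMP signaling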
Galanin receptor type 3 = biological target: T1, Galanin receptor type 3 (Homo sapiens, UniProt O60755); assay: Fluorescence-based cell-based primary high throughput dose response assay to identify antagonists of the Galanin Receptor 3 (GalR3).; format: functional
T1 sequence (O60755 whole entry): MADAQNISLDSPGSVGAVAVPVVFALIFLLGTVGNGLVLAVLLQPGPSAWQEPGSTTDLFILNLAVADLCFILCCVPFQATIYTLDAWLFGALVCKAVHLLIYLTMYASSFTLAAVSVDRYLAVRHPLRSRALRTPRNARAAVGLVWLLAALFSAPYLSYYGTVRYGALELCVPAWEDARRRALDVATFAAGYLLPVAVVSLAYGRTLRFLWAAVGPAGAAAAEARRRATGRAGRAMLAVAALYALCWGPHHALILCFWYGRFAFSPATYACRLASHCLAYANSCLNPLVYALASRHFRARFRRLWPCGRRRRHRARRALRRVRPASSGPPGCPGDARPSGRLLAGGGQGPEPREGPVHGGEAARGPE

cells = format: functional, cell-based; details: HEK-CNG
Tumor necrosis factor = Tumor necrosis factor (Homo sapiens, UniProt P01375); assay: analog potency on TNFa NF-kB signaling – cell-based, revised, SAR follow-up (AID 2337); format: functional
Chain of Tumor necrosis factor (P01375 whole entry): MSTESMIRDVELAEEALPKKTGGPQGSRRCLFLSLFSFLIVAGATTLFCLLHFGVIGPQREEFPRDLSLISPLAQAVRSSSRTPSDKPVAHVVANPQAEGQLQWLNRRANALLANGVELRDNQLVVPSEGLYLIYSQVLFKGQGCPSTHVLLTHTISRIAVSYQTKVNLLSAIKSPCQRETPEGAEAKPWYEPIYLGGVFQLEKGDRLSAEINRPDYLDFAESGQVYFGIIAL

[2] = HEK-293T viability loss, compound-treated – cell-based, uHTS hits, cytotoxicity control for B/T-cell NF-kB inhibitor project, dose response (AID 489019); format: functional;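 further: IC50 reflects cytotoxicity as loss of cell viability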
INS1 = assay: INS-1E survival protection against cytokine death – cell-based, luminescence, retest, dose response (AID 449756); format: functional; details: Rattus norvegicus;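 further: cell death triggered by IL-1 beta plus TNF-alpha plus IFN-gamma mixture; protective hits raise ATP signal compared with cytokine alone wells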
HEK293 = assay: cells; details: Homo sapiens;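 further: cells exposed to compound for 14 hours overnight before viability readout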
[3] = biological target: T2, Nucleotide-binding oligomerization domain-containing protein 1 (Homo sapiens, UniProt Q9Y239); assay: blockers of NOD1 pathway activity – revised, SAR follow-up (AID 2333); format: functional
T2 sequence (Q9Y239 whole entry): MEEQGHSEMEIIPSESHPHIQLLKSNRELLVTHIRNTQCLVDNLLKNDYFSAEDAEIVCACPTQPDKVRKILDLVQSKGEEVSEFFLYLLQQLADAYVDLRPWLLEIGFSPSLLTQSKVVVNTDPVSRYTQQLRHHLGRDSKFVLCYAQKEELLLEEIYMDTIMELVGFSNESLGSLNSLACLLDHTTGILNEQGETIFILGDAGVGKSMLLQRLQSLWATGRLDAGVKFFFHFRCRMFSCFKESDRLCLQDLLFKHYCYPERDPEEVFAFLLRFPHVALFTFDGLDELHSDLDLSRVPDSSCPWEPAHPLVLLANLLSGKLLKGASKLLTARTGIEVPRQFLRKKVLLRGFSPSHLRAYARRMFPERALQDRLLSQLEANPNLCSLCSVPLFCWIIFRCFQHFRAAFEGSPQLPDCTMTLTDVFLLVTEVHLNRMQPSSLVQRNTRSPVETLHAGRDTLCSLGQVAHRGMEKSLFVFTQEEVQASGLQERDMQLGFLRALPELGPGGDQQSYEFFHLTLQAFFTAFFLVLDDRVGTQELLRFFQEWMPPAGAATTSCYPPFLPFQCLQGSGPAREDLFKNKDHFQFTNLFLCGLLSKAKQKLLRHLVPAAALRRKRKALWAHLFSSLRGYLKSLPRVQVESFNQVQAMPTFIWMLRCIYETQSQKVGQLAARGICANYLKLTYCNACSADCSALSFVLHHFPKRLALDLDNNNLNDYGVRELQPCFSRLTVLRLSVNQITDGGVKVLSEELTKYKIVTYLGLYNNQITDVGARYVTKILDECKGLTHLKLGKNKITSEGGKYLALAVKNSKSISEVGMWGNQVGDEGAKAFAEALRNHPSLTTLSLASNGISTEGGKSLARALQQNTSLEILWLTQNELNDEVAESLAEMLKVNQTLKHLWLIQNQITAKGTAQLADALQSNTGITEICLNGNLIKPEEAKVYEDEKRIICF

Jurkat = assay: blockers of NF-kB activation in T cells – Jurkat, luciferase reporter, luminescence, B- and T-cell, dose response (AID 489004); format: functional, cell-based; details: Homo sapiens;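 further: NF-kB luciferase reporter Jurkat cells stimulated with PMA plus ionomycin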
[4] = biological target: DNA repair and recombination protein RAD54-like (Homo sapiens, UniProt Q92698); assay: RAD54 Holliday junction migration blockers – biochemical, fluorescence, cherry-picked samples, dose series, confirmation (AID 651657); format: functional
Chain of DNA repair and recombination protein RAD54-like (Q92698 whole entry): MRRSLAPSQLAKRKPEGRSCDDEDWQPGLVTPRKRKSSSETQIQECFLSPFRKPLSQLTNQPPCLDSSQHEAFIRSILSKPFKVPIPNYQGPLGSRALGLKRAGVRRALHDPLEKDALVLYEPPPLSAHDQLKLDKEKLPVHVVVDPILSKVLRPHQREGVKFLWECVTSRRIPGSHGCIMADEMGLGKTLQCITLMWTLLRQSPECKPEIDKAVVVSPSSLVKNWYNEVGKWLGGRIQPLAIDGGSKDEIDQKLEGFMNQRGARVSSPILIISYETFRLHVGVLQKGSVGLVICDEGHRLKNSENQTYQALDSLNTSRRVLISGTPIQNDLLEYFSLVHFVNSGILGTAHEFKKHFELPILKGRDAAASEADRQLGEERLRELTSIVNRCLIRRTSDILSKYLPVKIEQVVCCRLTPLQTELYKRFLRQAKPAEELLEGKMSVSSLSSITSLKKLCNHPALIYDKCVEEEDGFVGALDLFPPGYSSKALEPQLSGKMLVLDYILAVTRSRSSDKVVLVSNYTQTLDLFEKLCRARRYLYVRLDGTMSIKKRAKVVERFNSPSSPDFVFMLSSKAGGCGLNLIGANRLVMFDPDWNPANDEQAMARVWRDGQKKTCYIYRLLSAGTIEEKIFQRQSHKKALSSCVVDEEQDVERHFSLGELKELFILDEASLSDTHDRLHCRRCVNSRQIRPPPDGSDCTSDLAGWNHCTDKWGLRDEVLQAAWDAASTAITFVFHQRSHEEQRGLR

[5] = biological target: DNA dC->dU-editing enzyme APOBEC-3A (Homo sapiens, UniProt P31941); assay: Dose Response confirmation of small molecule APOBEC3A DNA Deaminase Inhibitors via a fluorescence-based single-stranded DNA deaminase assay. [Related pubchem assays (depositor defined):AID493011, AID493024]; format: functional
Chain of DNA dC->dU-editing enzyme APOBEC-3A (P31941 whole entry): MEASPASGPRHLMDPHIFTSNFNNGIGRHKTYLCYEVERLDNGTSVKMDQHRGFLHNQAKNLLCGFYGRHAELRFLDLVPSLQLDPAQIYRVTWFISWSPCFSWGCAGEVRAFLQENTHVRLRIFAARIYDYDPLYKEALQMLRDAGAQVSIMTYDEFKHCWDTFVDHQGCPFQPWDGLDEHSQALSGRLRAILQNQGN

[6] = biological target: DNA dC->dU-editing enzyme APOBEC-3G (Homo sapiens, UniProt Q9HC16); format: functional;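 further: Dose-response counterscreen measuring inhibition of APOBEC3G DNA deaminase activity, run while confirming APOBEC3A inhibitors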
Chain of DNA dC->dU-editing enzyme APOBEC-3G (Q9HC16 whole entry): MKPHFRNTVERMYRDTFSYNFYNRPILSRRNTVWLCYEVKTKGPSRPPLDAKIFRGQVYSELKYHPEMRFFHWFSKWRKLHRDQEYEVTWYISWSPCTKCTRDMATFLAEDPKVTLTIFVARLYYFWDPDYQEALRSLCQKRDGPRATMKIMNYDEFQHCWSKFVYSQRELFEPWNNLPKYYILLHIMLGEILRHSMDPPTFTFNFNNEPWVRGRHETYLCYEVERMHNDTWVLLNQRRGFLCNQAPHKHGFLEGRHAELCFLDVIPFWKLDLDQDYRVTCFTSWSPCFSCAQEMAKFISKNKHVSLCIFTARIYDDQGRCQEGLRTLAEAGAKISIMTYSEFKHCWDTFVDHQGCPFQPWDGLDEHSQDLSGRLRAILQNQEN

[7] = biological target: Eukaryotic translation initiation factor 4E (Mus musculus, UniProt P63073); assay: blockers of eIF4G binding by eIF4E – biochemical, TR-FRET, dose response (AID 855); format: functional;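 further: potency for disrupting eIF4E binding to eIF4GI seen as loss of FRET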
Chain of Eukaryotic translation initiation factor 4E (P63073 whole entry): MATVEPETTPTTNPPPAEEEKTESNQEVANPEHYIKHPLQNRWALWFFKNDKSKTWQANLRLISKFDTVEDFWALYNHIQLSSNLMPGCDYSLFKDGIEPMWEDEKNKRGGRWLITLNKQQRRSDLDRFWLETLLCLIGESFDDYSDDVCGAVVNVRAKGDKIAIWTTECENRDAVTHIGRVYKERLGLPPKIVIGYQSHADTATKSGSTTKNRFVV
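Wherever EC50 is given: target is galanin receptor GalR3 read with a cAMP biosensor in HEK293 cells.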

Chain of Melanocortin receptor 4 (P32245 whole entry): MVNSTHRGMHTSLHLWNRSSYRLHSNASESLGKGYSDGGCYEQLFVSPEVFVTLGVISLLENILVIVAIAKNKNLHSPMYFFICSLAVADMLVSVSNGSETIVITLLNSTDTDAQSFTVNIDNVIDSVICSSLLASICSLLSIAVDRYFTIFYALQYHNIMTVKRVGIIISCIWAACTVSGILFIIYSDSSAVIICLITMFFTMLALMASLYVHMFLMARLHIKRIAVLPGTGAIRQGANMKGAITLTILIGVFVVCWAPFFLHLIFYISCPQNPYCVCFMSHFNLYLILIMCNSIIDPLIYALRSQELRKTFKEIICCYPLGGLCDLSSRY

For `O=C(/C=C/c1cccs1)N1CCC2(CC1)Oc1ccc(Cl)cc1C(=O)C21CC(c2cccnc2)=NO1` (stereo unspecified), the IC50 (Melanocortin receptor 4) was > 64.6 µM (inactive) and the IC50 [1] was > 64.6 µM (inactive).

With `CCOc1ccc(Nc2nc(Cl)nc(N3CCN(c4ccc(OC)cc4)CC3)n2)cc1` the IC50 (Melanocortin receptor 4) was > 64.6 µM (inactive) and the IC50 [1] was > 64.6 µM (inactive).

In the case of `Cn1nccc1C(=O)NC1CCCc2c1cnn2-c1ccc(F)cc1F` (stereo unspecified), the IC50 (Galanin receptor type 3) was 0.24 µM (active), the EC50 (cells) was > 29.9 µM (inactive) and the IC50 (Tumor necrosis factor) was 0.712 µM (active). For the same compound, the IC50 [2] was > 80 µM (inactive), the AC50 (INS1) was 1.44 µM (active) and the IC50 (HEK293) was > 20 µM (inactive). For the same compound, the IC50 [3] was 0.677 µM (active) and the IC50 (Jurkat) was > 80 µM (inactive).

For `Cc1ccc2nc3c(c(N)c2c1)CCN3c1ccccc1`, the AC50 [4] was 42.5 µM (active).

For `O=C(C[n+]1c2n(c3ccc(C(F)(F)F)cc31)CCCCC2)Nc1ccccc1`, the IC50 [5] was 2.76 µM (active), the IC50 [6] was 3.79 µM (active) and the IC50 [7] was > 64 µM (inactive).
